Activity calls are given as the source filed them. The rule behind the calls is not given here.
Columns and labels:
COLO 205 = experiment: Cytotoxicity against human COLO205 cells after 72 hrs by MTT assay; assay type: functional, cell-based; conditions: COLO 205, 72 h
DU-145 = experiment: Cytotoxicity against human DU145 cells after 72 hrs by MTT assay; assay type: functional, cell-based; conditions: DU-145, 72 h
HT-29 = experiment: Cytotoxicity against human HT-29 cells after 72 hrs by MTT assay; assay type: functional, cell-based; conditions: HT-29, 72 h
PC-3 = experiment: Cytotoxicity against human PC3 cells after 72 hrs by MTT assay; assay type: functional, cell-based; conditions: PC-3, 72 h
[1] = Cytotoxicity against human ME180 cells after 72 hrs by MTT assay; assay type: functional, cell-based; conditions: ME-180, 72 h
B16 = experiment: Cytotoxicity against mouse B16 cells after 72 hrs by MTT assay; assay type: functional, cell-based; conditions: B16, 72 h
HeLa [2] = experiment: Cytotoxicity against human HeLa cells after 72 hrs by MTT assay; assay type: functional, cell-based
HeLa [3] = experiment: Cell cycle arrest in human HeLa cells assessed as accumulation at G1 phase at 0.5 uM after 24 hrs by propidium iodide staining-based FACS analysis (reference value: 71.21%); assay type: functional
Tubulin (Homo sapiens) [4] = biological target: T1, Tubulin (Homo sapiens) (UniProt P68371+Q9H4B7+P0DPH7+P68366+Q13509+Q71U36+P04350+Q3ZCM7+P07437+P68363+Q9BQE3+Q6PEY2+Q13885+Q9BVA1+Q9BUF5); experiment: Inhibition of tubulin polymerization in human HeLa cells assessed as disruption of microtubule organization at 1 uM after 48 hrs by immunohistochemical analysis; assay type: cell-based
Tubulin (Homo sapiens) [5] = biological target: T1, Tubulin (Homo sapiens); experiment: Inhibition of tubulin (unknown origin) polymerization at 5 uM measured for 1 hr by fluorescence assay in presence of GTP relative to control; assay type: protein-complex assay
Tubulin = experiment: Inhibition of tubulin (unknown origin) polymerization measured for 1 hr by fluorescence assay in presence of GTP; assay type: protein-complex assay, Homo sapiens
HeLa [6] = experiment: Induction of apoptosis in human HeLa cells assessed as nuclear fragmentation at 1 uM after 48 hrs by Hoechst 33342 staining-based fluorescence microscopic analysis; assay type: functional, cell-based
HeLa [7] = experiment: Induction of apoptosis in human HeLa cells assessed as caspase-3 activation at 2 uM after 48 hrs by Ac-DEVD fluorescence assay relative to control; assay type: functional
HeLa [8] = experiment: Cell cycle arrest in human HeLa cells assessed as accumulation at G2/M phase at 0.5 uM after 24 hrs by propidium iodide staining-based FACS analysis (reference value: 21.10%); assay type: functional
HeLa [9] = experiment: Induction of apoptosis in human HeLa cells assessed as DNA fragmentation at 1 to 2 uM after 48 hrs by agarose gel electrophoresis; assay type: functional, cell-based
HeLa [10] = experiment: Cell cycle arrest in human HeLa cells assessed as accumulation at sub-G1 phase at 0.5 uM after 24 hrs by propidium iodide staining-based FACS analysis (reference value: 3.07%); assay type: functional
HeLa [11] = experiment: Cell cycle arrest in human HeLa cells assessed as accumulation at S phase at 0.5 uM after 24 hrs by propidium iodide staining-based FACS analysis (reference value: 4.62%); assay type: functional
HeLa [12] = experiment: Induction of apoptosis in human HeLa cells assessed as presence of apoptotic bodies at 1 uM after 48 hrs by Hoechst 33342 staining-based fluorescence microscopic analysis; assay type: functional, cell-based
HeLa [13] = experiment: Induction of apoptosis in human HeLa cells assessed as […] condensation at 1 uM after 48 hrs by Hoechst 33342 staining-based fluorescence microscopic analysis; assay type: functional, cell-based

Row | inhibition (Tubulin (Homo sapiens) [4]) | inhibition (Tubulin (Homo sapiens) [5]) | IC50 (Tubulin) | SMILES | IC50 (COLO 205) | IC50 (DU-145) | IC50 (HT-29) | IC50 (PC-3) | IC50 [1] | IC50 (B16) | IC50 (HeLa [2]) | Activity (HeLa [3]) | Activity (HeLa [6]) | fold change (FC) (HeLa [7]) | Activity (HeLa [8]) | Activity (HeLa [9]) | Activity (HeLa [10]) | Activity (HeLa [11]) | Activity (HeLa [12]) | Activity (HeLa [13])
1 | – | – | – | C#CCOc1cccc(/C=C/C(=O)Nc2cc(C(=O)c3cc(OC)c(OC)c(OC)c3)ccc2OC)c1 | 13.4 µM | 15.8 µM | 7.4 µM | 13.1 µM | 15.3 µM | 12.2 µM | 14 µM | – | – | – | – | – | – | – | – | –
2 | Active | 60.5% | 0.6 µM | COc1ccc(C(=O)c2cc(OC)c(OC)c(OC)c2)cc1NC(=O)/C=C/c1ccc(F)cc1 | 3.4 µM | 3.9 µM | 1.8 µM | 3.2 µM | 0.3 µM | 0.4 µM | 0.06 µM | 53.02% | Active | 5 | 36.62% | Active | 2.96% | 7.4% | Active | Active
3 | – | – | – | COc1ccc(C(=O)c2cc(OC)c(OC)c(OC)c2)cc1NC(=O)/C=C/c1ccc(F)c(F)c1 | 6.02 µM | 10.2 µM | 4.2 µM | 8.3 µM | 8.9 µM | 6.5 µM | 8.1 µM | – | – | – | – | – | – | – | – | –
4 | – | – | – | COc1ccc(C(=O)c2cc(OC)c(OC)c(OC)c2)cc1NC(=O)/C=C/c1ccc([N+](=O)[O-])cc1 | 11.4 µM | 15.6 µM | 5.1 µM | 10.4 µM | 9.3 µM | 6.4 µM | 8.5 µM | – | – | – | – | – | – | – | – | –
5 | – | – | – | COc1cc(C(=O)c2cc(OC)c(OC)c(OC)c2)cc(NC(=O)/C=C/c2ccc(F)cc2)c1OC | 3.1 µM | 6.7 µM | 1.8 µM | 4.1 µM | 1 µM | 0.9 µM | 0.9 µM | – | – | – | – | – | – | – | – | –
6 | – | – | – | COc1ccc(/C=C/C(=O)Nc2cc(C(=O)c3cc(OC)c(OC)c(OC)c3)cc(OC)c2OC)cc1OC | 5.7 µM | 7.8 µM | 2.3 µM | 5.4 µM | 6.7 µM | 1.3 µM | 2.7 µM | – | – | – | – | – | – | – | – | –
7 | – | – | – | COc1cccc(/C=C/C(=O)Nc2cc(OC)c(OC)c(OC)c2)c1 | 4.2 µM | 3.2 µM | 2.4 µM | 2.1 µM | 17.3 µM | 8.5 µM | 12.3 µM | – | – | – | – | – | – | – | – | –
8 | – | – | – | COc1ccc(C(=O)c2cc(OC)c(OC)c(OC)c2)cc1NC(=O)/C=C/c1cccc(OC(F)(F)F)c1 | 7.9 µM | 10.2 µM | 5.2 µM | 7.7 µM | 9.2 µM | 6.3 µM | 7.9 µM | – | – | – | – | – | – | – | – | –
9 | – | – | – | COc1cc(C(=O)c2cc(OC)c(OC)c(OC)c2)cc(NC(=O)/C=C/c2cc(F)c(F)c(F)c2)c1OC | 4.3 µM | 7.9 µM | 3.3 µM | 7.4 µM | 7.1 µM | 5.2 µM | 5 µM | – | – | – | – | – | – | – | – | –
10 | – | – | – | COc1ccc(C(=O)c2cc(OC)c(OC)c(OC)c2)cc1NC(=O)/C=C/c1ccc(OC)c(OC)c1 | 8.2 µM | 10.2 µM | 2.5 µM | 7.5 µM | 8.9 µM | 6.3 µM | 7.8 µM | – | – | – | – | – | – | – | – | –
11 | – | – | – | COc1ccc(C(=O)c2cc(OC)c(OC)c(OC)c2)cc1NC(=O)/C=C/c1ccc(N)cc1 | 10.3 µM | 13.5 µM | 5.6 µM | 15.9 µM | 16 µM | 7.9 µM | 14.7 µM | – | – | – | – | – | – | – | – | –
12 | Active | 59.4% | 0.7 µM | COc1ccc(C(=O)c2cc(OC)c(OC)c(OC)c2)cc1NC(=O)/C=C/c1ccc(C(F)(F)F)cc1 | 2.6 µM | 4.3 µM | 1.6 µM | 3.5 µM | 0.8 µM | 0.1 µM | 0.09 µM | 49.59% | Active | 5 | 38.82% | Active | 5.66% | 5.92% | Active | Active

From ChEMBL document CHEMBL3259744, “Synthesis and biological evaluation of cinnamido linked benzophenone hybrids as tubulin polymerization inhibitors and apoptosis inducing agents” (Bioorg Med Chem Lett, 2014)
